Two compounds from ChEMBL document CHEMBL5370593, “Discovery and In Vitro Characterization of SPL028: Deuterated N,N-Dimethyltryptamine” (ACS Med Chem Lett, 2023) can be followed below.

The structures appear in SMILES notation.

The inhibition is how much of the control response was suppressed. For orientation: IC50 means the point on the concentration scale where inhibition reaches its midpoint. By Ki is commonly meant a dissociation constant, usually derived from enzyme kinetics or from competition with a known ligand. For orientation: half-life means how long it takes for the measured level to halve.

Data set [1] has as its target Alpha-1D adrenergic receptor (Homo sapiens) (UniProt P25100). Description: Displacement of [3H] prazosin from human recombinant adrenergic alpha-1d receptor expressed in HEK293 cells at 10 uM incubated for 60 mins by spectrophotometric analysis relative to control. The format is cell-based. For orientation: Loss of bound radioactivity is the signal in a displacement assay; it reports binding, not function.

Data set [2] concerns the target T1, Neuronal acetylcholine receptor; alpha3/beta4 (Homo sapiens, UniProt P30926+P32297). Description: Displacement of [125I]-epibatidine from human recombinant nAChR alpha3beta4 receptor expressed in CHO-K1 cells incubated for 60 mins by spectrophotometric analysis. The format is cell-based.
The target in data set [3] is Sigma non-opioid intracellular receptor 1 (Homo sapiens) (UniProt Q99720). Put plainly: Displacement of [3H] pentazocine from human sigma 1 receptor expressed in human Jurkat cells at 10 uM incubated for 120 mins by spectrophotometric analysis relative to control. The format is cell-based. The following applies: tested as the 2H-labelled form.
The target of data set [4] is T2, Alpha-1A adrenergic receptor (Homo sapiens, UniProt P35348).
T2 sequence (P35348 whole entry): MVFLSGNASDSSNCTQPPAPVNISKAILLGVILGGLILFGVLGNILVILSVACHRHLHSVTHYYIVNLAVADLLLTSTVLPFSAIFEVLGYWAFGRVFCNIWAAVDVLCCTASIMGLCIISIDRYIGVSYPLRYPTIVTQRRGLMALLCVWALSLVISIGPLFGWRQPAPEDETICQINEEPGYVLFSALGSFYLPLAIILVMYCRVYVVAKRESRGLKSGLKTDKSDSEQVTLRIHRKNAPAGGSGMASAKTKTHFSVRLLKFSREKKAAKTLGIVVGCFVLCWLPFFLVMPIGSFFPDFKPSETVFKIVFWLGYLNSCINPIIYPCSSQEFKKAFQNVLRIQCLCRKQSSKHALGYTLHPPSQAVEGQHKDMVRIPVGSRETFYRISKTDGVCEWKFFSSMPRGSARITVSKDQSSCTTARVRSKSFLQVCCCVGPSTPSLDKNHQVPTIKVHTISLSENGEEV
Description: Displacement of [3H] prazosin from human recombinant adrenergic alpha-1a receptor expressed in […] cells assessed as inhibition constant incubated for 60 mins by spectrophotometric analysis. The format is cell-based.

The target of data set [5] is 5-hydroxytryptamine receptor 6 (Homo sapiens, UniProt P50406). Put plainly: Displacement of [3H] LSD from human recombinant 5-HT6 receptor expressed in human HeLa cells assessed as inhibition constant incubated for 120 mins by spectrophotometric analysis. The format is cell-based.
Data set [6] addresses T3, 5-hydroxytryptamine receptor 1B (Homo sapiens, UniProt P28222). Description: Displacement of [3H] GR125743 from human recombinant 5-HT1B receptor expressed in […] cells at 10 uM incubated for 90 mins by spectrophotometric analysis relative to control. The format is cell-based.
The target in data set [7] is T3, 5-hydroxytryptamine receptor 1B. Put plainly: Displacement of [3H] GR125743 from human recombinant 5-HT1B receptor expressed in […] cells assessed as inhibition constant incubated for 90 mins by spectrophotometric analysis. The format is cell-based.
Data set [8] has as its target Alpha-2B adrenergic receptor (Homo sapiens) (UniProt P18089). Put plainly: Displacement of [3H]-rauwolscine from human recombinant adrenergic alpha-2b receptor expressed in […] cells at 10 uM incubated for 60 mins by […] relative to control. The format is cell-based.
Data set [9] concerns the target T1, Neuronal acetylcholine receptor; alpha3/beta4. Description: Displacement of [125I]-epibatidine from human recombinant nAChR alpha3beta4 receptor expressed in CHO-K1 cells assessed as inhibition constant incubated for 60 mins by spectrophotometric analysis. The format is cell-based.
In data set [10] the target is T2, Alpha-1A adrenergic receptor. Description: Displacement of [3H] prazosin from human recombinant adrenergic alpha-1a receptor expressed in […] cells incubated for 60 mins by spectrophotometric analysis. The format is cell-based.
The target of data set [11] is T4, 5-hydroxytryptamine receptor 7 (Homo sapiens, UniProt P34969). Description: Displacement of [3H] LSD from human recombinant 5-HT7 receptor expressed in CHO-K1 cells at 10 uM incubated for 120 mins by spectrophotometric analysis relative to control. The format is cell-based.
Data set [12] has as its target T4, 5-hydroxytryptamine receptor 7. Put plainly: Displacement of [3H] LSD from human recombinant 5-HT7 receptor expressed in CHO-K1 cells assessed as inhibition constant incubated for 120 mins by spectrophotometric analysis. The format is cell-based.
For data set [13], the target named is T1, Neuronal acetylcholine receptor; alpha3/beta4. Put plainly: Displacement of [125I]-epibatidine from human recombinant nAChR alpha3beta4 receptor expressed in CHO-K1 cells at 10 uM incubated for 60 mins by spectrophotometric analysis relative to control. The format is cell-based.
The target of data set [14] is 5-hydroxytryptamine receptor 1A (Homo sapiens) (UniProt P08908). Description: Displacement of [3H] 8-OH-DPAT from human recombinant 5-HT1A receptor expressed in CHO-K1 cells at 10 uM incubated for 60 mins by spectrophotometric analysis relative to control. The format is cell-based.
Data set [15] concerns the target T4, 5-hydroxytryptamine receptor 7. Put plainly: Displacement of [3H] LSD from human recombinant 5-HT7 receptor expressed in CHO-K1 cells incubated for 120 mins by spectrophotometric analysis. The format is cell-based.
The nature of data set [16]: Metabolic stability in human liver mitochondrial fraction assessed as mean intrinsic clearance measured per million cells incubated upto 60 mins by LC-MS/MS analysis. The format is ADME, mitochondria, Mitochondria. The following applies: 1 h.
Data set [17] concerns the target 5-hydroxytryptamine receptor 2A (Homo sapiens, UniProt P28223). Put plainly: Displacement of [3H] ketanserin from human recombinant 5-HT2A receptor expressed in CHO-K1 cells assessed as inhibition constant incubated for 60 mins by spectrophotometric analysis.
A short description of data set [18]: Displacement of [3H] idazoxan from imidazoline receptor 2 (unknown origin) assessed as inhibition constant by spectrophotometric analysis. Further details: species or system Homo sapiens.
The nature of data set [19]: Metabolic stability in human hepatocytes assessed as half life measured per million cells incubated upto 60 mins by LC-MS/MS analysis. The format is ADME, cell-based, Hepatocyte.
The target of data set [20] is 5-hydroxytryptamine receptor 5A (Homo sapiens, UniProt P47898). Description: Displacement of [3H] LSD from human recombinant 5-HT5A receptor expressed in CHO-K1 cells assessed as inhibition constant incubated for 60 mins by spectrophotometric analysis. The format is cell-based.
Data set [21] concerns the target T5, Alpha-2A adrenergic receptor (Homo sapiens, UniProt P08913).
T5 sequence (P08913 whole entry): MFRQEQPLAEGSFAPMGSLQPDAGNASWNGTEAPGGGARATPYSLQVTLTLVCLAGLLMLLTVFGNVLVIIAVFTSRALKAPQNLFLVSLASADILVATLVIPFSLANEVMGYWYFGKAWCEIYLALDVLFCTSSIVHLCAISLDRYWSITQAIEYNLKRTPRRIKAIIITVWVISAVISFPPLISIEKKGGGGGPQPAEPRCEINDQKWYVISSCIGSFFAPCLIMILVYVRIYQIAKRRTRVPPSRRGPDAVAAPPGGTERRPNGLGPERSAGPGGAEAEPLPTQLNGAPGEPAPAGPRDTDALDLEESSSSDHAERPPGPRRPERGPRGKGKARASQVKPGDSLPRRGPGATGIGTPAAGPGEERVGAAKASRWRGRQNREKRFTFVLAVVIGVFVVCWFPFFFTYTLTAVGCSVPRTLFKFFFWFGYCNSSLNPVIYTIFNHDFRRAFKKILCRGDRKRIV
Description: Displacement of [3H]-rauwolscine from human recombinant adrenergic alpha-2A receptor expressed in CHO-K1 cells assessed as inhibition constant incubated for 60 mins by spectrophotometric analysis. The format is cell-based.

T4 sequence (P34969 whole entry): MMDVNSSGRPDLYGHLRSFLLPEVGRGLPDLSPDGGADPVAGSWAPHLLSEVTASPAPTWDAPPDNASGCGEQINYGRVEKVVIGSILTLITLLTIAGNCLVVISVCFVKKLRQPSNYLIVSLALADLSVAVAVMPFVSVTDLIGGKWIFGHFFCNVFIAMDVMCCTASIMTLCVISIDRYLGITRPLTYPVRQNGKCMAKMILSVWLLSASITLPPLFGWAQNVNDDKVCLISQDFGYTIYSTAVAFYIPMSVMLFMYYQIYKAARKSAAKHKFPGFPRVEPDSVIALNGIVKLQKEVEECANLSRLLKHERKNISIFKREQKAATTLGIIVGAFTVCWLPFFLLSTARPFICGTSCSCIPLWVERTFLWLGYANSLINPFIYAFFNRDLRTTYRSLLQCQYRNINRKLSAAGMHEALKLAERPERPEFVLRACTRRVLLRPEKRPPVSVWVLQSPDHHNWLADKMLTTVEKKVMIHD
T3 sequence (P28222 whole entry): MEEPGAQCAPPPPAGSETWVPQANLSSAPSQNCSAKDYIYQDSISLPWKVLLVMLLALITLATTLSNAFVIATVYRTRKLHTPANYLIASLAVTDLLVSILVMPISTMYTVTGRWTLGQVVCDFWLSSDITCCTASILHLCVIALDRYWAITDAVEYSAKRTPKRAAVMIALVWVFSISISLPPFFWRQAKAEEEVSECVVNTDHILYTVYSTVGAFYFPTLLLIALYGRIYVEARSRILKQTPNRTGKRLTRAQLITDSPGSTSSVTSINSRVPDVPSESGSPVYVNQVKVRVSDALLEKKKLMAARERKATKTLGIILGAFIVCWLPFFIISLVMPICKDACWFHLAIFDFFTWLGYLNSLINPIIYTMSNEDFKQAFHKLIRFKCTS
T1 sequence (P30926 whole entry): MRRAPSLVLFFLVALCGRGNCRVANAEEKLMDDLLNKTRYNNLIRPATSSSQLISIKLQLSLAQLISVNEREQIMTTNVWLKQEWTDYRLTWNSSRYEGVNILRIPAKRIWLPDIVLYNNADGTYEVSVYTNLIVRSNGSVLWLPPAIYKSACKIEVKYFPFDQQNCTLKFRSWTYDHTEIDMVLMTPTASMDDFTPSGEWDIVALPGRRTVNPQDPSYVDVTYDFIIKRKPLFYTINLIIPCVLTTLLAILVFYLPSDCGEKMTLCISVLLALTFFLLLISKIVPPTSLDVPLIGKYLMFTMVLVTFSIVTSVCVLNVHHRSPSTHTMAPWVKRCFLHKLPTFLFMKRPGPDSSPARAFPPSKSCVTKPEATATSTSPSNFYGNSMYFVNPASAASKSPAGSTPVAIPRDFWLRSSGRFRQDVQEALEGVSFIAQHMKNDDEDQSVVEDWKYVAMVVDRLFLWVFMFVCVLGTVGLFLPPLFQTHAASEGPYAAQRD
T1 sequence (P32297 whole entry): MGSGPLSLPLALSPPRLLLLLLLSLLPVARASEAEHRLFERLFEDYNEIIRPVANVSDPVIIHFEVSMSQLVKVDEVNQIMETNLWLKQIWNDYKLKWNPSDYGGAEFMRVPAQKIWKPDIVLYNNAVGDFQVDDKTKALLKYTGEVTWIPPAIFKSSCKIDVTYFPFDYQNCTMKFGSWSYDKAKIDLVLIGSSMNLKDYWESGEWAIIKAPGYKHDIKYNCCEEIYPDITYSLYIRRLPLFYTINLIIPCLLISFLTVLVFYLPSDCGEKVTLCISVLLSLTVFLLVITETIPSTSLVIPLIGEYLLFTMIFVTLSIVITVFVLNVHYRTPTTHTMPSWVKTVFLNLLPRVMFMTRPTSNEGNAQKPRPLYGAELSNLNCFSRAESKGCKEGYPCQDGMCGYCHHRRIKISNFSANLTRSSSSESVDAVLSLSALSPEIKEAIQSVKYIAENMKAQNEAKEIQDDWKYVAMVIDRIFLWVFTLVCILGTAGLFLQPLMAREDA
5-hydroxytryptamine receptor 1A (Homo sapiens), sequence (P08908 whole entry): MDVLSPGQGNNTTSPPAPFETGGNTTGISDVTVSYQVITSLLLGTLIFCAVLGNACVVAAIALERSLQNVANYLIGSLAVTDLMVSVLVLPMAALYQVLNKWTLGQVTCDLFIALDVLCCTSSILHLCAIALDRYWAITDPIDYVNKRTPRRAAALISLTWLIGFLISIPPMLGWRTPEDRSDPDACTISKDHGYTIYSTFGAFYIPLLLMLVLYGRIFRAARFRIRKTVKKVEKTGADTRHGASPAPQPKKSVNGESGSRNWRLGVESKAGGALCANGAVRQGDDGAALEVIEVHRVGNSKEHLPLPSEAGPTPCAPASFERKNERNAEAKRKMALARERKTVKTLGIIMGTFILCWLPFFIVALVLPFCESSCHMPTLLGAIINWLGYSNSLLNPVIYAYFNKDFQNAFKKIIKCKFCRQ
5-hydroxytryptamine receptor 5A, sequence (P47898 whole entry): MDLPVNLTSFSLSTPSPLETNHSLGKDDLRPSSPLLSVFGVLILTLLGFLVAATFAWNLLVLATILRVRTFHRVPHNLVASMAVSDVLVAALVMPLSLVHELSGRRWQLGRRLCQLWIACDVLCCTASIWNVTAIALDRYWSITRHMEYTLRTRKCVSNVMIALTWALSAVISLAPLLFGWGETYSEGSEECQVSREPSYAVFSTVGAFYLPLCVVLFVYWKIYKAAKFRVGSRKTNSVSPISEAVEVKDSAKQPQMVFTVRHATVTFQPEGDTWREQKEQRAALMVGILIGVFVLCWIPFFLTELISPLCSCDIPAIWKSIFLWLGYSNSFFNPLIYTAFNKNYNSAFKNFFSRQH
Alpha-2B adrenergic receptor (Homo sapiens), sequence (P18089 whole entry): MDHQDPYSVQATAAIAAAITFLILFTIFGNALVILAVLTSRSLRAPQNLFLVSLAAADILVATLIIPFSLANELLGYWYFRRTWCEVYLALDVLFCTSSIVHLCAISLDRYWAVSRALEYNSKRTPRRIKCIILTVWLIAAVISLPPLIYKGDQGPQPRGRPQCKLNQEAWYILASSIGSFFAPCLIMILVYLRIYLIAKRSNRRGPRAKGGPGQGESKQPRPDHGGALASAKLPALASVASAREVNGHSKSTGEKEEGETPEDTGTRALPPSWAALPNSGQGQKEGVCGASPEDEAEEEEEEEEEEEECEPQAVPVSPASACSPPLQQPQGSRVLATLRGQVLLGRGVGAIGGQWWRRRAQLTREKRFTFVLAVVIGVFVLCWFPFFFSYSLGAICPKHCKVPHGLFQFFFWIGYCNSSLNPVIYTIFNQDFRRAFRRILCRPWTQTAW
5-hydroxytryptamine receptor 6, sequence (P50406 whole entry): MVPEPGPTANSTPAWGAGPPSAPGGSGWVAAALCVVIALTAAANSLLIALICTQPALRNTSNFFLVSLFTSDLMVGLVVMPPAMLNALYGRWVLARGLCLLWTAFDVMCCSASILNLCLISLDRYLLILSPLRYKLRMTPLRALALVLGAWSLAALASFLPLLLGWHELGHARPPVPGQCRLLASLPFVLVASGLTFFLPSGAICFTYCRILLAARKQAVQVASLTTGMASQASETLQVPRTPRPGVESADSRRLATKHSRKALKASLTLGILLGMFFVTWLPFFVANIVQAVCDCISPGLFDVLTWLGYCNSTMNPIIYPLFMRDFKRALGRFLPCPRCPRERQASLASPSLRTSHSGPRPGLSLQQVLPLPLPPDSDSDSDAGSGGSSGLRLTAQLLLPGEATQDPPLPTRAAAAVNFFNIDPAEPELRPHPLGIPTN
Alpha-1D adrenergic receptor (Homo sapiens), sequence (P25100 whole entry): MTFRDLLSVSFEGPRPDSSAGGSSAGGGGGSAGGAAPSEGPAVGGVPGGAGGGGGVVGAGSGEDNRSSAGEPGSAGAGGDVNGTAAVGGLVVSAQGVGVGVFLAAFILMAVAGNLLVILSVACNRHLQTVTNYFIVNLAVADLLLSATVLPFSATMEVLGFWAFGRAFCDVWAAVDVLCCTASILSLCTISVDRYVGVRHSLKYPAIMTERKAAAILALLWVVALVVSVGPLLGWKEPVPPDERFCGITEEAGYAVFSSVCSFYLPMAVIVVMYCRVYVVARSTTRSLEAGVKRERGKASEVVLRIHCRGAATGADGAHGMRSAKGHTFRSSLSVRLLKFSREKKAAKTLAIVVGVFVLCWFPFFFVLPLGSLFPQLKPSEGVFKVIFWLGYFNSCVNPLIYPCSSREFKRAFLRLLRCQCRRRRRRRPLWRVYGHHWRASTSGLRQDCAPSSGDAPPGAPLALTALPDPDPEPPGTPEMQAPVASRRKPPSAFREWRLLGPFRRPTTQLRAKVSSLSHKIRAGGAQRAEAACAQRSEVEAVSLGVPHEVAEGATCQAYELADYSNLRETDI
5-hydroxytryptamine receptor 2A, sequence (P28223 whole entry): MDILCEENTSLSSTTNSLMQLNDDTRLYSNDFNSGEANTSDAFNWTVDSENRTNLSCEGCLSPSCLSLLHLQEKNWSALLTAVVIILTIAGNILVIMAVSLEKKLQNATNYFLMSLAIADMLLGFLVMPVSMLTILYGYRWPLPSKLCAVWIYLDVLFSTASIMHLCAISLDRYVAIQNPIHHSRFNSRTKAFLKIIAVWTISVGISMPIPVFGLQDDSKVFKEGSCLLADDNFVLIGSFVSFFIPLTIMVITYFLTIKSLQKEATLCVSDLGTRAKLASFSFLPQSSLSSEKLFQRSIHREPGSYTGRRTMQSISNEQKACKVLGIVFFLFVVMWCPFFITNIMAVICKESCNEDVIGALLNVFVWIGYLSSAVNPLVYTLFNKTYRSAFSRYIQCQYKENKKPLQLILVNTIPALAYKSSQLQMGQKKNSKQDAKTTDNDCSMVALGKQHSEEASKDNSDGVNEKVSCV
Sigma non-opioid intracellular receptor 1 (Homo sapiens), sequence (Q99720 whole entry): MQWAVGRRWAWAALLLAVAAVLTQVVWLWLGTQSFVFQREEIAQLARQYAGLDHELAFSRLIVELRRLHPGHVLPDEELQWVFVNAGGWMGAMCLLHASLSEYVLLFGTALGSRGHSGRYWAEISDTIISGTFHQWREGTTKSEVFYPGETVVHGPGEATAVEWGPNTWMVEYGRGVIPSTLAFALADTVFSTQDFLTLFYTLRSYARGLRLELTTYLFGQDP

Turning to `CN(C)CCc1c[nH]c2ccccc12.O=C(O)/C=C/C(=O)O`, the inhibition was found to be 54.1% in data set [1]; 63.2% in data set [1] (tested as the 2H-labelled form); 45% in [3]; 73.1% in data set [6]; 75.5% in data set [6] (tested as the 2H-labelled form); 81.1% in [8]. Further, the inhibition in [8] (tested as the 2H-labelled form) was found to be 79.8%; in data set [11] it was 90.4%; in [11] (tested as the 2H-labelled form), 95.5%; in data set [13], 64.6%; in data set [13] (tested as the 2H-labelled form), 63.5%; in [14] it was 96%. In addition, the inhibition in data set [14] (tested as the 2H-labelled form) was determined as 97.6%. Besides, the IC50 was determined as 4.2 µM in [2], 0.58 µM in data set [10] and 0.12 µM in data set [15]. Further, the Ki in [4] was 0.28 µM; in data set [5], 0.56 µM; in [7] it was 1.84 µM; in data set [9], 3.03 µM; in data set [12], 0.07 µM; in data set [17], 0.04 µM. The Ki in [18] was found to be 1.29 µM; in data set [20], 1.71 µM; in data set [21], 1.11 µM. The CLH in [16] is 168 µL/min. The half-life in data set [19] worked out at 3.17 h.

For `O=C(O)/C=C/C(=O)O.[2H]C([2H])(Cc1c[nH]c2ccccc12)N(C)C`, the IC50 was 4.4 µM in [2], 0.99 µM in [10] and 0.09 µM in data set [15]. Moreover, the Ki in [4] came out at 0.48 µM; in [5], 0.5 µM; in [7], 1.52 µM; in data set [9], 3.18 µM; in data set [12] it was 0.05 µM; in data set [17], 0.06 µM. The figures for the Ki in data set [18], in data set [20] and in [21] were 1.73 µM, 1.71 µM and 1.52 µM, respectively. The CLH in data set [16] was found to be 16.5 µL/min. Besides, in data set [19], the half-life was determined as 3.72 h.
